Data from patent US10544112B2, “Identification of ebsulfur analogues with broad-spectrum antifungal activity” (priority 2017, dated 2020).
In brackets after ≈: the same amount, converted by molar mass.

Experiments:
[1] = system: C. albicans ATCC 64124 (strain B); experiment: microbe, parasite or virus in culture; format: cell-based, Candida albicans; conditions: strain B; compounds 1-4n and AmB; 48 h, RPMI 1640
Protocol: (§1) Fungal MIC determination experiments were performed using untreated 96-well plates (Corning). Cells were counted either by using a hemocytometer (Hausser Scientific, Horsham, Pa., USA) or by measuring optical density at attenuance of 600 nm (OD600) by using a Genesys 20 spectrophotometer (Thermo Scientific, Waltham, Mass., USA). Spectrophotometric and colorimetric measurements in 96-well plates were performed using a SpectraMax M5 spectrometer (Molecular Devices, Sunnyvale, Calif., USA).
(§2) Yeast strains Candida albicans ATCC 10231 (strain A), C. albicans ATCC 64124 (strain B), and C. albicans ATCC MYA-2876(S) (strain C) were kindly provided by Dr. Jon Y. Takemoto (Utah State University, Logan, UT, USA). C. albicans ATCC MYA-90819(R) (strain D), C. albicans ATCC MYA-2310(S) (strain E), C. albicans ATCC 1237(R) (strain F), C. albicans ATCC MYA-1003(R) (strain G), Candida glabrata ATCC 2001 (strain H), Candida krusei ATCC 6258 (strain I), and Candida parapsilosis ATCC 22019 (strain J) were obtained from the American Type Culture Collection (ATCC, Manassas, Va., USA). The (S) and (R) indicate that ATCC reports these strains to be susceptible (S) and resistant (R) to ITC and FLC. The filamentous fungal strains Aspergillus flavus ATCC MYA-3631 (strain K), and Aspergillus terreus ATCC MYA-3633 (strain M) were also obtained from the American Type Culture Collection (ATCC, Manassas, Va., USA). Aspergillus nidulans ATCC 38163 (strain L) was kindly provided by Dr. Jon S. Thorson (University of Kentucky, Lexington, Ky., USA), respectively. Yeast strains were cultured at 35° C. Filamentous fungal strains were cultured at 25° C. and the spores were harvested. All fungal strains were cultured in RPMI 1640 medium (catalog # R6504, Sigma-Aldrich Chemical Co., St. Louis, Mo.) buffered to pH 7.0 with 0.165 M morpholinepropanesulfonic acid (MOPS) buffer (Sigma-Aldrich Chemical Co.).
(§3) The MIC values against fungal strains were determined based on a previously published protocol. MIC values for ebsulfur (2a) analogues against fungal cells were evaluated in 96-well plates as described in the CLSI document M27-A3 with minor modifications. […] Therefore, potato dextrose broth (PDB) was used to grow the yeast inocula of all strains tested, which were later diluted in RPMI 1640 medium to perform determination of MIC values. […] The tested compounds (10 mg/mL) were diluted to the working stocks (500 μg/mL) by addition of DMSO. Two-fold serial dilution of the working stocks was prepared by addition of RPMI 1640 medium (100 μL) and cell suspension (100 μL) to 96-well microtiter plate to achieve final drug and inoculum concentrations ranging from 12.5-0.02 μg/mL and 5×10^3 CFU/mL, respectively. Plates were incubated for 48 h at 35° C. […]

[2] = system: C. albicans ATCC 90819(R) (strain D); experiment: microbe, parasite or virus in culture; format: cell-based, Candida albicans; conditions: strain D; compounds 1-4n and AmB; 48 h, RPMI 1640
Protocol: as §1, §2, §3

[3] = system: C. albicans ATCC MYA-1237(R) (strain F); experiment: microbe, parasite or virus in culture; format: cell-based, Candida albicans; conditions: strain F; compounds 1-4n and AmB; 48 h, RPMI 1640
Protocol: as §1, §2, §3

[4] = system: C. albicans ATCC MYA-1003(R) (strain G); experiment: microbe, parasite or virus in culture; format: cell-based, Candida albicans; conditions: strain G; compounds 1-4n and AmB; 48 h, RPMI 1640
Protocol: as §1, §2, §3

[5] = system: C. albicans ATCC MYA-2876(S) (strain C); experiment: Antifungal MIC determination (CLSI M27-A3, 96-well); format: cell-based, Candida albicans; conditions: strain C; compounds 1-4n and AmB; 48 h, RPMI 1640
Protocol: as §1, §2, §3

[6] = system: C. albicans ATCC MYA-2310(S) (strain E); experiment: as above; format: cell-based, Candida albicans; conditions: strain E; compounds 1-4n and AmB; 48 h, RPMI 1640
Protocol: as §1, §2, §3

Candida strains (A-J) = experiment: Antifungal MIC, summary over panel of Candida strains; format: cell-based; conditions: Candida strains A-J
Protocol: as §1, §2, §3

[7] = system: Aspergillus flavus ATCC MYA-3631 (strain K); experiment: Antifungal MIC determination, filamentous fungi spores; format: cell-based; conditions: all compounds
Protocol: as §1, §2
(§4) The MIC values against fungal strains were determined based on a previously published protocol. MIC values for ebsulfur (2a) analogues against fungal cells were evaluated in 96-well plates as described in the CLSI document M27-A3 with minor modifications. […] Therefore, potato dextrose broth (PDB) was used to grow the yeast inocula of all strains tested, which were later diluted in RPMI 1640 medium to perform determination of MIC values. […] The tested compounds (10 mg/mL) were diluted to the working stocks (500 μg/mL) by addition of DMSO. Two-fold serial dilution of the working stocks was prepared by addition of RPMI 1640 medium (100 μL) and cell suspension (100 μL) to 96-well microtiter plate to achieve final drug and inoculum concentrations ranging from 12.5-0.02 μg/mL and 5×10^3 CFU/mL, respectively. Plates were incubated for 48 h at 35° C.
(§5) MIC assays for the spore-forming filamentous fungi, such as strain A. flavus ATCC MYA-3631 (strain K), were performed in a similar fashion. The filamentous fungal strains were first cultured at 25° C. on potato dextrose agar (PDA) plates for 3-5 days or until confluent. Spores were collected by washing the surface of the agar plates with dd H2O (5 mL) and then isolated the spores by gravity filtration (the spores are H2O soluble). […] Researchers working with spores should wear a facemask to prevent spore inhalation.

[8] = system: Aspergillus nidulans ATCC 38163 (strain L); experiment: as above; format: cell-based; conditions: strain L; spores
Protocol: as §1, §2, §4, §5

[9] = system: Aspergillus terreus ATCC MYA-3633 (strain M); experiment: as above; format: cell-based; conditions: strain M; all compounds; spores
Protocol: as §1, §2, §4, §5

[10] = system: Candida krusei ATCC 6258 (strain I); experiment: Antifungal MIC determination (CLSI M27-A3, 96-well); format: cell-based; conditions: strain I; compounds 1-4n and AmB; 48 h, RPMI 1640
Protocol: as §1, §2, §3

[11] = system: Candida glabrata ATCC 2001 (strain H); experiment: as above; format: cell-based; conditions: strain H; compounds 1-4n and AmB; 48 h, RPMI 1640
Protocol: as §1, §2, §3

[12] = system: Candida albicans ATCC 10231 (strain A); experiment: as above; format: cell-based; conditions: strain A; compounds 1-4n and AmB; 48 h, RPMI 1640
Protocol: as §1, §2, §3

[13] = system: Candida parapsilosis ATCC 22019 (strain J); experiment: as above; format: cell-based; conditions: strain J; compounds 1-4n and AmB; 48 h, RPMI 1640
Protocol: as §1, §2, §3

SMILES	MIC-0 [1] [µg/mL]	MIC-0 [2] [µg/mL]	MIC-0 [3] [µg/mL]	MIC-0 [4] [µg/mL]	MIC-0 [5] [µg/mL]	MIC-0 [6] [µg/mL]	MIC values against Candida strains, range (Candida strains (A-J)) [µg/mL]	MIC-0 [7] [µg/mL]	MIC-0 [8] [µg/mL]	MIC-0 [9] [µg/mL]	MIC-0 [10] [µg/mL]	MIC-0 [11] [µg/mL]	MIC-0 [12] [µg/mL]	MIC-0 [13] [µg/mL]
CC(C)c1ccc(-n2sc3ccccc3c2=O)cc1 [Compound 2e]	3.13 (≈ 11.6 µM)	3.13 (≈ 11.6 µM)	6.25 (≈ 23.2 µM)	3.13 (≈ 11.6 µM)	3.13 (≈ 11.6 µM)	3.13 (≈ 11.6 µM)	3.13 to 6.25	6.25 (≈ 23.2 µM)	6.25 (≈ 23.2 µM)	6.25 (≈ 23.2 µM)	3.13 (≈ 11.6 µM)	3.13 (≈ 11.6 µM)	3.13 (≈ 11.6 µM)	3.13 (≈ 11.6 µM)
C#Cc1ccc(-n2sc3ccccc3c2=O)cc1 [Compound 2f]	12.5 (≈ 49.7 µM)	12.5 (≈ 49.7 µM)	12.5 (≈ 49.7 µM)	12.5 (≈ 49.7 µM)	>12.5	>12.5	> 12.5	12.5 (≈ 49.7 µM)	12.5 (≈ 49.7 µM)	12.5 (≈ 49.7 µM)	6.25 (≈ 24.9 µM)	6.25 (≈ 24.9 µM)	12.5 (≈ 49.7 µM)	12.5 (≈ 49.7 µM)
O=c1c2ccccc2sn1-c1cccc(Br)c1 [Compound 2g]	12.5 (≈ 40.8 µM)	12.5 (≈ 40.8 µM)	12.5 (≈ 40.8 µM)	12.5 (≈ 40.8 µM)	12.5 (≈ 40.8 µM)	>12.5	> 12.5	12.5 (≈ 40.8 µM)	12.5 (≈ 40.8 µM)	12.5 (≈ 40.8 µM)	12.5 (≈ 40.8 µM)	12.5 (≈ 40.8 µM)	>12.5	12.5 (≈ 40.8 µM)
O=c1c2ccccc2sn1-c1ccc(Cl)cn1 [Compound 2n]	12.5 (≈ 47.6 µM)	>12.5	12.5 (≈ 47.6 µM)	12.5 (≈ 47.6 µM)	12.5 (≈ 47.6 µM)	12.5 (≈ 47.6 µM)	> 12.5	>12.5	>12.5	>12.5	>12.5	>12.5	12.5 (≈ 47.6 µM)	>12.5
CCCCCCCCCCCCn1sc2ccccc2c1=O [Compound 3d]	>12.5	>12.5	>12.5	>12.5	>12.5	>12.5	> 12.5	>12.5	>12.5	>12.5	>12.5	12.5 (≈ 39.1 µM)	>12.5	>12.5
CC(C)Cn1sc2ccccc2c1=O [Compound 3e]	1.56 (≈ 7.53 µM)	0.78 (≈ 3.76 µM)	0.78 (≈ 3.76 µM)	1.56 (≈ 7.53 µM)	0.78 (≈ 3.76 µM)	0.78 (≈ 3.76 µM)		0.20 (≈ 0.965 µM)	0.02 (≈ 0.0965 µM)	0.10 (≈ 0.482 µM)	0.39 (≈ 1.88 µM)	1.56 (≈ 7.53 µM)	0.78 (≈ 3.76 µM)	0.78 (≈ 3.76 µM)
CC(C)CCn1sc2ccccc2c1=O [Compound 3f]	0.78 (≈ 3.52 µM)	0.78 (≈ 3.52 µM)	0.78 (≈ 3.52 µM)	1.56 (≈ 7.05 µM)	1.56 (≈ 7.05 µM)	0.78 (≈ 3.52 µM)		0.20 (≈ 0.904 µM)	0.02 (≈ 0.0904 µM)	0.10 (≈ 0.452 µM)	0.39 (≈ 1.76 µM)	1.56 (≈ 7.05 µM)	1.56 (≈ 7.05 µM)	1.56 (≈ 7.05 µM)
O=c1c2ccccc2sn1CCc1ccccc1 [Compound 3i]	1.56 (≈ 6.11 µM)	1.56 (≈ 6.11 µM)	1.56 (≈ 6.11 µM)	1.56 (≈ 6.11 µM)	1.56 (≈ 6.11 µM)	1.56 (≈ 6.11 µM)		0.78 (≈ 3.05 µM)	0.20 (≈ 0.783 µM)	0.20 (≈ 0.783 µM)	1.56 (≈ 6.11 µM)	1.56 (≈ 6.11 µM)	1.56 (≈ 6.11 µM)	1.56 (≈ 6.11 µM)
O=c1c2ccccc2sn1CCCc1ccccc1 [Compound 3j]	3.13 (≈ 11.6 µM)	3.13 (≈ 11.6 µM)	6.25 (≈ 23.2 µM)	6.25 (≈ 23.2 µM)	6.25 (≈ 23.2 µM)	6.25 (≈ 23.2 µM)	1.56 to 62.5	0.78 (≈ 2.9 µM)	0.20 (≈ 0.742 µM)	0.20 (≈ 0.742 µM)	1.56 (≈ 5.79 µM)	1.56 (≈ 5.79 µM)	6.25 (≈ 23.2 µM)	6.25 (≈ 23.2 µM)
O=c1c2ccccc2sn1C1CCCCCC1 [Compound 3m]	1.56 (≈ 6.31 µM)	1.56 (≈ 6.31 µM)	1.56 (≈ 6.31 µM)	3.13 (≈ 12.7 µM)	3.13 (≈ 12.7 µM)	3.13 (≈ 12.7 µM)		0.10 (≈ 0.404 µM)	0.20 (≈ 0.809 µM)	0.20 (≈ 0.809 µM)	0.39 (≈ 1.58 µM)	3.13 (≈ 12.7 µM)	1.56 (≈ 6.31 µM)	3.13 (≈ 12.7 µM)
